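Each compound was tested at five concentrations against cells in 96-well plates for 48 hours. GI50 marks 50% less growth.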 Activity calls are given as the source filed them. No stated cut-off is given here; in the data, active = GI50 up to about 1.1 µM and inactive = higher. Non-standard residues stand in square brackets, D forms with d. Residues, ends and D or L forms follow the SMILES beside them. ξ: configuration not given here. *: point of attachment. ξF = NC(Cc1ccccc1)C(=O)O; Cbz = O=C(OCc1ccccc1)*; Aib = CC(C)(N)C(=O)O
Assays:
Experiment in all cases: growth of human tumour cells (NCI), 48 h
CCRF-CEM = test system: CCRF-CEM
NCI/ADR-RES = test system: NCI/ADR-RES
HCC 2998 = test system: HCC 2998
COLO 205 = test system: COLO 205
SK-MEL-2 = test system: SK-MEL-2
A498 = test system: A498
SW-620 = test system: SW-620
U-251 = test system: U-251
TK-10 = test system: TK-10
K562 = test system: K562
SNB-19 = test system: SNB-19
RPMI-8226 = test system: RPMI-8226
SR = test system: SR
KM12 = test system: KM12
NCI-H522 = test system: NCI-H522
MCF7 = test system: MCF7
UACC-62 = test system: UACC-62
HOP-62 = test system: HOP-62
NCI-H226 = test system: NCI-H226
NCI-H460 = test system: NCI-H460

Measured: GI50

O=C1c2[nH]c3ccc(Br)cc3c2CCN1Cc1ccc(Cl)cc1
inactive: CCRF-CEM 12.3 µM | NCI/ADR-RES 17.2 µM | HCC 2998 14.5 µM | COLO 205 17.7 µM | SK-MEL-2 19.1 µM | A498 17.1 µM | SW-620 16.5 µM | U-251 12.5 µM | TK-10 13.7 µM | K562 8.79 µM | SNB-19 15.1 µM | RPMI-8226 > 10 µM | SR 8.79 µM | KM12 14.1 µM | NCI-H522 17.9 µM | MCF7 16.6 µM | UACC-62 14.1 µM | HOP-62 12.9 µM

COc1ccc(N2NC(c3ccccc3)(c3ccccc3)C(C)C2=O)cc1 (stereo not given)
inactive: CCRF-CEM 35.6 µM | NCI/ADR-RES 48.2 µM | NCI-H226 49.8 µM | HCC 2998 > 100 µM | COLO 205 16 µM | SK-MEL-2 51.8 µM | A498 > 100 µM | SW-620 58.9 µM | U-251 64.3 µM | TK-10 86.7 µM | K562 52.1 µM | SNB-19 > 100 µM | NCI-H460 29.6 µM | RPMI-8226 > 100 µM | SR 96.6 µM | KM12 33 µM | NCI-H522 43.9 µM | MCF7 25.5 µM | UACC-62 91.2 µM | HOP-62 > 100 µM

C[n+]1cccc2c(=O)c3ccccc3oc21
inactive: CCRF-CEM > 100 µM | NCI/ADR-RES > 100 µM | NCI-H226 > 100 µM | HCC 2998 > 100 µM | COLO 205 > 100 µM | SK-MEL-2 > 100 µM | A498 > 100 µM | SW-620 > 100 µM | U-251 > 100 µM | TK-10 > 100 µM | K562 > 100 µM | SNB-19 > 100 µM | NCI-H460 > 100 µM | SR > 100 µM | KM12 > 100 µM | NCI-H522 > 100 µM | MCF7 > 100 µM | UACC-62 > 100 µM | HOP-62 > 100 µM

O=c1[nH]c(=S)[nH]c2c(C3OC(CO)C(O)C3O)nsc12 (stereo not given)
inactive: CCRF-CEM > 100 µM | NCI/ADR-RES > 100 µM | NCI-H226 > 100 µM | HCC 2998 > 100 µM | COLO 205 > 100 µM | SK-MEL-2 > 100 µM | A498 > 100 µM | SW-620 > 100 µM | U-251 > 100 µM | TK-10 > 100 µM | K562 > 100 µM | NCI-H460 > 100 µM | SR > 10 µM | MCF7 > 100 µM | UACC-62 > 100 µM | HOP-62 > 100 µM

COc1ccc(N2C(=O)C(=O)N(C)C2=O)c2ccccc12
inactive: CCRF-CEM > 10 µM | NCI/ADR-RES > 10 µM | NCI-H226 > 10 µM | HCC 2998 > 10 µM | COLO 205 > 10 µM | SK-MEL-2 > 10 µM | A498 > 10 µM | SW-620 > 10 µM | U-251 > 10 µM | TK-10 > 10 µM | K562 > 10 µM | SNB-19 > 10 µM | NCI-H460 > 10 µM | RPMI-8226 > 10 µM | SR > 10 µM | KM12 > 10 µM | NCI-H522 > 10 µM | MCF7 > 10 µM | UACC-62 > 10 µM | HOP-62 > 10 µM

COc1ccc(N2C(=O)C(=O)C3(CCCCC3)C2=O)c2ccccc12
inactive: CCRF-CEM > 10 µM | NCI/ADR-RES > 10 µM | NCI-H226 > 10 µM | HCC 2998 > 10 µM | COLO 205 > 10 µM | SK-MEL-2 > 10 µM | A498 > 10 µM | SW-620 > 10 µM | U-251 > 10 µM | TK-10 > 10 µM | K562 > 10 µM | SNB-19 > 10 µM | NCI-H460 > 10 µM | RPMI-8226 > 10 µM | SR > 10 µM | KM12 > 10 µM | NCI-H522 > 10 µM | MCF7 > 10 µM | UACC-62 > 10 µM | HOP-62 > 10 µM

CCOC(=O)CNC(=O)C(Cc1ccccc1)NC(=O)C(C)(C)NC(=O)OCc1ccccc1 (stereo not given) (Cbz-[Aib]-[ξF]-Gly-OEt)
inactive: CCRF-CEM > 100 µM | NCI/ADR-RES > 100 µM | HCC 2998 43.5 µM | COLO 205 93.1 µM | A498 > 100 µM | SW-620 > 100 µM | U-251 > 100 µM | TK-10 > 100 µM | K562 33.1 µM | SNB-19 > 100 µM | NCI-H460 > 10 µM | RPMI-8226 32.6 µM | SR 30.3 µM | NCI-H522 29.8 µM | MCF7 > 100 µM | UACC-62 19.6 µM | HOP-62 > 100 µM

Source: ChEMBL document CHEMBL1201862, “PubChem BioAssay data set” (2004)
